Assays:
[1] = tested on: patient with heart failure; experiment: Case examples: statin therapy started after biomarker determination in heart failure patients; conditions: person
Protocol: PlGF is determined in a plasma sample obtained from the patient. The PlGF value is above 22 pg/mL. The physician prescribes atorvastatin 20 mg/d and closely monitors creatine kinase to exclude myopathy.

patients with CHF = conditions: rosuvastatin 10 mg daily, CORONA and GISSI-HF trials; cited from earlier work

Row | SMILES | outcome (death or hospitalization) ([1]; NYHA class III heart failure, prior myocardial infarction, PlGF above 22 pg/mL, atorvastatin 20 mg/d, next 1.5 years) | outcome (death or hospitalization) ([1]; class C heart failure, no CAD, GDF-15 above 3800 pg/mL, atorvastatin 10 mg/d, next 16 months) | effect of statin treatment on primary end point (patients with CHF)
1 | CC(C)c1c(C(=O)Nc2ccccc2)c(-c2ccccc2)c(-c2ccc(F)cc2)n1CC[C@@H](O)C[C@@H](O)CC(=O)O [atorvastatin, Atorvastatin] | remains stable with a good outcome | remains stable with a good outcome | –
2 | CC(C)c1nc(N(C)S(C)(=O)=O)nc(-c2ccc(F)cc2)c1/C=C/[C@@H](O)C[C@@H](O)CC(=O)O [rosuvastatin, Rosuvastatin] | – | – | failed to demonstrate a beneficial effect

From patent publication US11460474B2, “Marker for statin treatment stratification in heart failure” (Roche Diagnostics Operations, Inc., priority 2013, dated 2022)
